Results from article PMC8445441, “Elucidating the mechanism by which synthetic helper peptides sensitize Pseudomonas aeruginosa to multiple antibiotics” (PLoS Pathogens, 2021).
Positions of bridges follow the written chain, without caps; N, C: chain ends. Non-standard residues stand in square brackets, D forms with d. Residues, ends and D or L forms follow the SMILES beside them. *: point of attachment. X1 = CC[C@H](C)CCCCC(=O)*; Dab = NCC[C@H](N)C(=O)O

What was measured:
[1] = system: P. aeruginosa NR-31040; assay: microbe, parasite or virus in culture; parameters: MICa: MIC of the antibiotic / MICac: MIC of the antibiotic in the combination: unit not given beside the values; conditions: strain NR-31040
Protocol: (§1) The MIC tests were performed in triplicate using broth microdilution in accordance with Clinical and Laboratory Standards Institute (CLSI) recommendations (http://iacld.ir/DL/public/CLSI-2018-M100-S28.pdf). Briefly, drugs were two-fold diluted in MHB and mixed with an equal volume of bacterial suspensions containing approximately 1 × 10^6 CFU/mL in 96-well microliter plate. After 18 h incubation at 37 °C, the MIC values were defined as the lowest concentrations of antibiotics with no visible growth of bacteria. […] Otherwise, 1/4 MIC of the peptide was used in the combination. […] If needed, membrane compounds PG, PE, PC, CL or LPS, or membrane stabilizers MgCl2 or CaCl2, or efflux pumps inhibitor PAβN were added to the broth medium to clarify the effect of other substances on the synergy between peptide and antibiotics. All the tests were performed in triplicate.
(§2) The fractional inhibitory concentration (FIC) indices were calculated using the previously described formula FICI = FICa + FICb = MICac/MICa + MICbc/MICb. The FICI was interpreted according to EUCAST [65] as follows: synergistic, FICI≤0.5; additive, 0.5<FICI≤1; indifferent, 1<FICI<2; antagonistic, FICI ≥2. For the FICI calculations, twice the highest concentration tested was used in the cases where the MIC was not reached.

[2] = system: P. aeruginosa PA14; assay: microbe, parasite or virus in culture; parameters: MICa: MIC of the antibiotic / MICac: MIC of the antibiotic in the combination: unit not given beside the values; conditions: strain PA14
Protocol: as §1, §2

[3] = system: P. aeruginosa PAK; assay: microbe, parasite or virus in culture; parameters: MICa: MIC of the antibiotic / MICac: MIC of the antibiotic in the combination: unit not given beside the values; conditions: strain PAK
Protocol: as §1, §2

[4] = system: P. aeruginosa ATCC27853; assay: microbe, parasite or virus in culture; parameters: MICa: MIC of the antibiotic / MICac: MIC of the antibiotic in the combination: unit not given beside the values; conditions: strain ATCC27853
Protocol: as §1, §2

[5] = system: P. aeruginosa NR-31041; assay: microbe, parasite or virus in culture; parameters: MICa: MIC of the antibiotic / MICac: MIC of the antibiotic in the combination: unit not given beside the values; conditions: strain NR-31041
Protocol: as §1, §2

[6] = system: clinical P. aeruginosa isolates; assay: microbe, parasite or virus in culture; conditions: antibiotic alone
Summary of the method: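 MIC is the lowest drug concentration showing no visible growth after 18 h at 37 °C. Two-fold dilutions in MHB were combined with an equal volume of bacterial suspension (about 1 × 10^6 CFU/mL), following CLSI broth microdilution, in triplicate.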

[7] = system: P. aeruginosa AUMC-Pa-6; assay: microbe, parasite or virus in culture; conditions: strain AUMC-Pa-6
Summary of the method: (§3)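 After 18 h at 37 °C, the lowest concentration showing no visible growth was read as the MIC. Drugs were serially diluted two-fold in MHB and combined with an equal volume of inoculum (~1 × 10^6 CFU/mL), following CLSI broth microdilution; run in triplicate.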

[8] = system: P. aeruginosa PAO1; assay: microbe, parasite or virus in culture; conditions: for MICac: the MIC for the antibiotic in the combination: S3 Table, PAO1
Summary of the method: as §3

[9] = system: P. aeruginosa AUMC-Pa-4; assay: microbe, parasite or virus in culture; conditions: strain AUMC-Pa-4
Summary of the method: as §3

[10] = system: P. aeruginosa AUMC-Pa-3; assay: microbe, parasite or virus in culture; conditions: strain AUMC-Pa-3
Summary of the method: as §3

[11] = system: P. aeruginosa AUMC-Pa-5; assay: microbe, parasite or virus in culture; conditions: strain AUMC-Pa-5
Summary of the method: as §3

[12] = system: P. aeruginosa HM-214; parameters: MICa: MIC of the antibiotic / MICac: MIC of the antibiotic in the combination: unit not given beside the values; conditions: strain HM-214
Protocol: as §1, §2

[13] = system: P. aeruginosa AUMC-Pa-2; conditions: strain AUMC-Pa-2
Protocol: as §1, §2

[14] = system: P. aeruginosa AUMC-Pa-1; conditions: strain AUMC-Pa-1
Protocol: as §1, §2

[15] = antibiotic + D-11 (MICb/MICbc 128/4)
[16] = antibiotic alone, unit not given
[17] = with D-11 at MICbc 4, unit not given
[18] = antibiotic + D-11 (MICb/MICbc 64/4)

CC[C@H](C)CCCCC(=O)N[C@@H](CCN)C(=O)N[C@H](C(=O)N[C@@H](CCN)C(=O)N[C@H]1CCNC(=O)[C@H]([C@@H](C)O)NC(=O)[C@H](CCN)NC(=O)[C@H](CCN)NC(=O)[C@H](CC(C)C)NC(=O)[C@@H](CC(C)C)NC(=O)[C@H](CCN)NC1=O)[C@@H](C)O [Colistin] (X1-[Dab]T[Dab][Dab][Dab][dL]L[Dab][Dab]T; lactam 4-C (inferred); N-terminus assumed)
FICI [1, 15]: 0.281 | MICa: MIC of the antibiotic [1, 16]: 1 | MICac: MIC of the antibiotic in the combination [1, 17]: 0.25 | FICI [2, 15]: 0.094 | MICa: MIC of the antibiotic [2, 16]: 0.25 | MICac: MIC of the antibiotic in the combination [2, 17]: 0.016 | FICI [3, 18]: 0.079 | MICa: MIC of the antibiotic [3, 16]: 0.25 | MICac: MIC of the antibiotic in the combination [3, 17]: 0.008 | FICI ([4]; antibiotic + D-11 (MICb/MICbc 32/4)): 0.375 | MICa: MIC of the antibiotic [4, 16]: 0.25 | MICac: MIC of the antibiotic in the combination [4, 17]: 0.063 | FICI [5, 18]: 0.127 | MICa: MIC of the antibiotic [5, 16]: 0.125 | MICac: MIC of the antibiotic in the combination [5, 17]: 0.008 | Antibiotic sensibility (MIC) of clinical P. aeruginosa isolate AUMC-Pa-1 ([6]; strain AUMC-Pa-1): 0.5 µM | Antibiotic sensibility (MIC) of clinical P. aeruginosa isolate AUMC-Pa-2 ([6]; strain AUMC-Pa-2): 0.5 µM | Antibiotic sensibility (MIC) of clinical P. aeruginosa isolate AUMC-Pa-3 ([6]; strain AUMC-Pa-3): 0.25 µM | Antibiotic sensibility (MIC) of clinical P. aeruginosa isolate AUMC-Pa-4 ([6]; strain AUMC-Pa-4): 8 µM | Antibiotic sensibility (MIC) of clinical P. aeruginosa isolate AUMC-Pa-5 ([6]; strain AUMC-Pa-5): 4 µM | Antibiotic sensibility (MIC) of clinical P. aeruginosa isolate AUMC-Pa-6 ([6]; strain AUMC-Pa-6): 4 µM | Antibiotic sensibility (MIC) of clinical P. aeruginosa isolate HM-214 ([6]; strain HM-214): 1 µM | Antibiotic sensibility (MIC) of clinical P. aeruginosa isolate NR-31040 ([6]; strain NR-31040): 1 µM | Antibiotic sensibility (MIC) of clinical P. aeruginosa isolate NR-31041 ([6]; strain NR-31041): 0.125 µM | FICI [7, 18]: 0.563 | MICa: MIC of the antibiotic [7, 16]: 4 | MICac: MIC of the antibiotic in the combination [7, 17]: 2 | MICa: the MIC of antibiotics ([8]; PAO1, 18 h): 0.25 µM | MICac: the MIC for the antibiotic in the combination ([8]; with 2 μM D-11): 0.004 µM | MICac: the MIC for the antibiotic in the combination ([8]; with 4 μM D-11): 0.001 µM | FICI [9, 15]: 0.531 | MICa: MIC of the antibiotic [9, 16]: 8 | MICac: MIC of the antibiotic in the combination [9, 17]: 4 | FICI [10, 15]: 0.039 | MICa: MIC of the antibiotic [10, 16]: 0.25 | MICac: MIC of the antibiotic in the combination [10, 17]: 0.002 | FICI [11, 18]: 1.063 | MICa: MIC of the antibiotic [11, 16]: 4/4 | MICac: MIC of the antibiotic in the combination [11, 17]: 4/4 | FICI [12, 15]: 0.063 | MICa: MIC of the antibiotic [12, 16]: 1 | MICac: MIC of the antibiotic in the combination [12, 17]: 0.031 | FICI [13, 18]: 1.063 | MICa: MIC of the antibiotic [13, 16]: 0.5/0.5 | MICac: MIC of the antibiotic in the combination [13, 17]: 0.5/0.5 | FICI [14, 15]: 0.281 | MICa: MIC of the antibiotic [14, 16]: 0.5 | MICac: MIC of the antibiotic in the combination [14, 17]: 0.125
